Adverse effect data for 1 compound are collected here from paper PMC12080345 (Journal of medicinal chemistry, 2023).

The data set in a line: Acute toxicity assay in mice. Type of data set: in vivo. The settings on record: 200 mg/kg.

Take `COc1cc(Cn2ccc3cc(C(=O)NCC45C[C@H]6C[C@@H](C4)C[C@@H](C5)C6)ccc32)ccc1C(=O)NO` [4e, N-(((3r,5r,7r)-Adamantan-1-yl)methyl)-1-(4-(hydroxycarbamoyl)-3-methoxybenzyl)-1H-indole-5-carboxamide]: the adverse effect entry is “no observed adverse effect”.
